Measurements reported in patent US7517874B2 (priority 2007, dated 2009).
Where two headings read alike, the source gives them in different places.

Tests used:
[1] = molecular target: human CB1 receptor (hCB1) (Homo sapiens, UniProt P21554); test: cell-based; assay type: cell-based; settings: for +/− HCB1: agonist or inverse agonist at hCB1
Description: (§1) The ability of compounds to act as agonists or inverse agonists at human CB2 and CB1 receptors (hCB2, hCB1, respectively) and at the rat CB2 receptor (rCB2) was determined by measuring changes in intracellular cAMP levels. Chinese Hamster Ovary (CHO-K1) cell lines stably expressing hCB2 (Genebank: X74328) or hCB1 (Genebank: X54937) were purchased from Euroscreen (Gosselies, Belgium). The rat CB2 receptor was expressed from genomic DNA (provided by M. Abood, California Pacific Medical Center) in CHO-K1 cells from expression plasmid vector, pcDNA3.1.
(§2) Cell lines were grown in suspension in EX-CELL 302 CHO Serum-free medium (Sigma, cat #14324C) supplemented with 1% Fetal Bovine Serum, glutamine and non-essential amino-acids under 0.4 mg/mL G418 selection.
(§3) Receptor mediated responses were determined by measuring changes in intracellular cAMP using LANCE cAMP detection kit (cat #AD0264, Perkin Elmer, Wellesley, Mass.) based on time-resolved fluorescence resonance energy transfer (TR-FRET). Changes in cAMP were determined in cells pre-incubated with IBMX (isobutyl methylxanthine) and prestimulated with NKH-477 (a water soluble forskolin derivative, cat #1603, Tocris, Ellisville, Mo.) to increase basal cAMP levels as detailed below.
(§4) On the day of the experiment, cells were spun at low speed for 5 min at room temperature. The supernatant was removed and cells were resuspended in stimulation buffer (Hanks Buffered Salt Solution/5 mM HEPES, containing 0.5 mM IBMX (cat #17018, Sigma) and 0.02% BSA (Perkin-Elmer, cat #CR84-100)). Cell clumps were removed by filtering through cell strainer 40 μm (BD Falcon, Discovery Labware, Bedford, Mass.) and diluted to 2×10^5 cells/mL. Antibody supplied with the LANCE cAMP immunoassay kit was then added according to the manufacturer's instructions. An aliquot of cells was taken for un-induced controls. To the remaining cells was added NKH-477 (a water soluble forskolin derivative, Tocris cat #1603) to a final concentration of 2-8 μM. Cells were then incubated for 30 min at room temperature prior to adding to Proxiplates containing test compounds (final DMSO concentration was less than 0.5%) with a Multidrop bulk dispenser, followed by a sixty minute incubation at room temperature. The response was stopped by addition of the detection mix supplied with the LANCE kit. The reagents were allowed to equilibrate for three hours prior to reading on an Envision multi-mode detector (Perkin-Elmer). TR-FRET was measured using a 330-380 nm excitation filter, a 665 nm emission filter, dichroic mirror 380 nm and Z=1 mm. Cyclic AMP concentrations in each well were back-calculated from a cAMP standard curve run concurrently during each assay. Each plate contained 16 wells of forskolin stimulated cells and 16 wells of forskolin plus CP55,940-treated cells. Cells were treated with 1 μM CP55,940 (Tocris cat. #0949). Concentrations of cAMP were expressed as a percent of the difference of these two groups of wells. Concentration-response data including EC50 (the concentration of compound producing 50% of the maximal response) and intrinsic activity (the percent maximal activation compared to full activation by CP55,940) were determined using a four-parameter non-linear regression algorithm (Xlfit equation 251, IDBS).

rat CB2 receptor (rCB2) = molecular target: T1, rat CB2 receptor (rCB2) (Rattus norvegicus, UniProt Q9QZN9); test: cell-based; assay type: cell-based; settings: for +/− RCB2: agonist or inverse agonist at rCB2
T1 sequence (Q9QZN9 1-360): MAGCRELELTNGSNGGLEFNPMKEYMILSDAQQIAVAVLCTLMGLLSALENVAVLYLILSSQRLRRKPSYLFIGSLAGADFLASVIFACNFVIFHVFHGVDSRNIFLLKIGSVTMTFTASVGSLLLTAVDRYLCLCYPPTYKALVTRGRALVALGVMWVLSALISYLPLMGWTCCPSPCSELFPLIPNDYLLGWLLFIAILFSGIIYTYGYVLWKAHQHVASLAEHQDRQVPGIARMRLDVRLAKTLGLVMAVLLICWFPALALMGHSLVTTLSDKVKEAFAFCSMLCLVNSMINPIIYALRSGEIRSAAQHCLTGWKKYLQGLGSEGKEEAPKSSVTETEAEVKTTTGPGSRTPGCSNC
Description: as §1, §2, §3, §4

Chain of human CB1 receptor (hCB1) (P21554 whole entry): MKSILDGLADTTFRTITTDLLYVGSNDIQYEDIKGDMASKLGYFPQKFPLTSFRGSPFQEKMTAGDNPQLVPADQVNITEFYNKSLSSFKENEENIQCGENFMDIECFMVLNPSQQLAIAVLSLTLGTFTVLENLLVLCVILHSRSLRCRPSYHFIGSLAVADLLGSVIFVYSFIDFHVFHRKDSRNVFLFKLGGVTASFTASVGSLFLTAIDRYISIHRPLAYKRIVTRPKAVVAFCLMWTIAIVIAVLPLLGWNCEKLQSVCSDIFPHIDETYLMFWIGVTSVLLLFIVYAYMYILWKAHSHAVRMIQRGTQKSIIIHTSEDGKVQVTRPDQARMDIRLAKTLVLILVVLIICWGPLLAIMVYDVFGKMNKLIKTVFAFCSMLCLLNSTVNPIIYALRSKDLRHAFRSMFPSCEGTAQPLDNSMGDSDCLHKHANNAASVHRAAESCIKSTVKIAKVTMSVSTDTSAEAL

Row | SMILES | EC50 [1] | +/− RCB2 (rat CB2 receptor (rCB2)) | +/− HCB1 [1] | further results
1 | CN1CCn2c(-c3ccccc3)nc(C(=O)NCC3OCCO3)c2C1 [Compound 234, N-((1,3-dioxolan-2-yl)methyl)-7-methyl-3-phenyl-5,6,7,8-tetrahydroimidazo[1,5-a]pyrazine-1-carboxamide] | > 10000 nM | + |  | 
2 | CNC(=O)[C@@H](NC(=O)c1nc(C2=CCCC2)n2c1CN(C)CC2)C(C)(C)C [Compound 238, (S)-3-cyclopentenyl-N-(3,3-dimethyl-1-(methylamino)-1-oxobutan-2-yl)-7-methyl-5,6,7,8-tetrahydroimidazo[1,5-a]pyrazine-1-carboxamide] |  |  | + | EC50 (rat CB2 receptor (rCB2)): > 10000 nM
3 | CNC(=O)[C@@H](NC(=O)c1nc(-c2cccc(C(=O)N(C)C)c2)n2c1CN(C)CCC2)C(C)(C)C [Compound 412, (S)-N-(3,3-dimethyl-1-(methylamino)-1-oxobutan-2-yl)-3-(3-(dimethylcarbamoyl)phenyl)-8-methyl-6,7,8,9-tetrahydro-5H-imidazo[1,5-a][1,4]diazepine-1-carboxamide] | > 10000 nM |  |  | EC50 (rat CB2 receptor (rCB2)): > 10000 nM
4 | CNC(=O)[C@@H](NC(=O)c1nc(C(C)=C(C)C)n2c1CN(C)CCC2)C(C)(C)C [Compound 454, (S)-N-(3,3-dimethyl-1-(methylamino)-1-oxobutan-2-yl)-8-methyl-3-(3-methylbut-2-en-2-yl)-6,7,8,9-tetrahydro-5H-imidazo[1,5-a][1,4]diazepine-1-carboxamide] |  | − | + | 
5 | CC(C)CN1CCn2c(-c3ccccc3)nc(C(=O)N[C@H](C(=O)N(C)C)C(C)(C)C)c2C1 [Compound 80, (S)-N-(1-(dimethylamino)-3,3-dimethyl-1-oxobutan-2-yl)-7-isobutyl-3-phenyl-5,6,7,8-tetrahydroimidazo[1,5-a]pyrazine-1-carboxamide] | > 10000 nM | − |  | 
6 | COC(=O)N1CCn2c(-c3ccccc3)nc(C(=O)NCC3CCOCC3)c2C1 [Compound 186, methyl 3-phenyl-1-((tetrahydro-2H-pyran-4-yl)methylcarbamoyl)-5,6-dihydroimidazo[1,5-a]pyrazine-7(8H)-carboxylate] | > 10000 nM | − |  | 
7 | CNC(=O)[C@@H](NC(=O)c1nc(-c2cc(C(N)=O)ccc2F)n2c1CN(C)CCC2)C(C)(C)C [Compound 405, (S)-3-(5-carbamoyl-2-fluorophenyl)-N-(3,3-dimethyl-1-(methylamino)-1-oxobutan-2-yl)-8-methyl-6,7,8,9-tetrahydro-5H-imidazo[1,5-a][1,4]diazepine-1-carboxamide] |  |  |  | EC50 ([1]; groups >100 nM-10 μM and >10 μM, cAMP, CHO-K1 hCB1, read-out: EC50 HCB1): > 10000 nM; EC50 (rat CB2 receptor (rCB2); groups >100 nM-10 μM and >10 μM, cAMP, CHO-K1 rCB2, read-out: EC50 RCB2): > 10000 nM
8 | CNC(=O)[C@@H](NC(=O)c1nc(-c2ccccc2)n2c1C[N+](C)(C)CCC2)C(C)(C)C [Compound 481, (S)-1-(3,3-dimethyl-1-(methylamino)-1-oxobutan-2-ylcarbamoyl)-8,8-dimethyl-3-phenyl-6,7,8,9-tetrahydro-5H-imidazo[1,5-a][1,4]diazepin-8-ium] | > 10000 nM |  |  | EC50 (rat CB2 receptor (rCB2)): > 10000 nM
9 | CNC(=O)[C@@H](NC(=O)c1nc(-c2ccc(Cl)cc2)n2c1CNCC2)C(C)(C)C [Compound 9, (S)-3-(4-chlorophenyl)-N-(3,3-dimethyl-1-(methylamino)-1-oxobutan-2-yl)-5,6,7,8-tetrahydroimidazo[1,5-a]pyrazine-1-carboxamide] | > 10000 nM | − |  | 
10 | CNC(=O)[C@H](NC(=O)c1nc(-c2ccccc2)n2c1CN(C)CC2)C(C)(C)C [Compound 302, (R)-N-(3,3-dimethyl-1-(methylamino)-1-oxobutan-2-yl)-7-methyl-3-phenyl-5,6,7,8-tetrahydroimidazo[1,5-a]pyrazine-1-carboxamide] | > 10000 nM |  |  | EC50 (rat CB2 receptor (rCB2)): > 10000 nM
11 | CNC(=O)[C@H](CC(C)C)NC(=O)c1nc(C2=CCCC2)n2c1CN(C)CC2 [Compound 279, (S)-3-cyclopentenyl-7-methyl-N-(4-methyl-1-(methylamino)-1-oxopentan-2-yl)-5,6,7,8-tetrahydroimidazo[1,5-a]pyrazine-1-carboxamide] |  | + | + | 
12 | CC(C)(C)OC(=O)N1CCn2c(-c3ccccc3)nc(C(=O)NC3CCCCC3)c2C1 [Compound 36, tert-butyl 1-(cyclohexylcarbamoyl)-3-phenyl-5,6-dihydroimidazo[1,5-a]pyrazine-7(8H)-carboxylate] | > 10000 nM | − |  | 
13 | CNC(=O)[C@H](Cc1cscn1)NC(=O)c1nc(-c2cc(Cl)c(F)cc2F)n2c1CN(C)CCC2 [Compound 593, (S)-3-(5-chloro-2,4-difluorophenyl)-8-methyl-N-(1-(methylamino)-1-oxo-3-(thiazol-4-yl)propan-2-yl)-6,7,8,9-tetrahydro-5H-imidazo[1,5-a][1,4]diazepine-1-carboxamide] |  | + | + | 
14 | CNC(=O)[C@@H](NC(=O)c1nc(-c2ccc(F)cc2)n2c1CN(C)CCC2)C(C)(C)C [Compound 437, (S)-N-(3,3-dimethyl-1-(methylamino)-1-oxobutan-2-yl)-3-(4-fluorophenyl)-8-methyl-6,7,8,9-tetrahydro-5H-imidazo[1,5-a][1,4]diazepine-1-carboxamide] | > 10000 nM |  |  | EC50 (rat CB2 receptor (rCB2)): > 10000 nM
15 | CNC(=O)[C@@H](NC(=O)c1nc(-c2ccoc2)n2c1CN(C)CCC2)C(C)(C)C [Compound 440, (S)-N-(3,3-dimethyl-1-(methylamino)-1-oxobutan-2-yl)-3-(furan-3-yl)-8-methyl-6,7,8,9-tetrahydro-5H-imidazo[1,5-a][1,4]diazepine-1-carboxamide] | > 10000 nM | + |  | 
16 | CC(C)(C)[C@@H](CO)NC(=O)c1nc(-c2ccccc2)n2c1CN(S(=O)(=O)c1ccc(F)cc1)CC2 [Compound 101, (S)-7-(4-fluorophenylsulfonyl)-N-(1-hydroxy-3,3-dimethylbutan-2-yl)-3-phenyl-5,6,7,8-tetrahydroimidazo[1,5-a]pyrazine-1-carboxamide] | > 10000 nM | − |  | 
17 | CNC(=O)[C@@H](NC(=O)c1nc(-c2ccccc2)n2c1CN(Cc1cnn(C)c1)CC2)C(C)(C)C [Compound 66, (S)-N-(3,3-dimethyl-1-(methylamino)-1-oxobutan-2-yl)-7-((1-methyl-1H-pyrazol-4-yl)methyl)-3-phenyl-5,6,7,8-tetrahydroimidazo[1,5-a]pyrazine-1-carboxamide] | > 10000 nM | + |  | 
18 | CNC(=O)[C@H](CC(C)(C)C)NC(=O)c1nc(-c2ccc(F)cc2)n2c1CN(C)CCC2 [Compound 547, (S)-N-(4,4-dimethyl-1-(methylamino)-1-oxopentan-2-yl)-3-(4-fluorophenyl)-8-methyl-6,7,8,9-tetrahydro-5H-imidazo[1,5-a][1,4]diazepine-1-carboxamide] |  | + | + | 
19 | CN1CCCn2c(-c3ccc(Cl)c(F)c3)nc(C(=O)N[C@H](C(=O)N(C)C)C(C)(C)C)c2C1 [Compound 560, (S)-3-(4-chloro-3-fluorophenyl)-N-(1-(dimethylamino)-3,3-dimethyl-1-oxobutan-2-yl)-8-methyl-6,7,8,9-tetrahydro-5H-imidazo[1,5-a][1,4]diazepine-1-carboxamide] |  | + | + | 
